Tests used:
[1] = system: smallflower umbrella sedge (CYPDI); assay: Test 32 greenhouse, simulated flooded rice culture; format: in vivo, Cyperus difformis; settings: postemergence to flood, 21 DAA
Description: (§1) A greenhouse trial was conducted to evaluate the effects of Compound 1 and isoxadifen-ethyl at different ratios in simulated flooded rice culture. Plastic pots (11-cm diameter) were partially filled with non-sterilized Tama silt loam soil containing a 15:57:28 ratio of sand, silt and clay and 2.9% organic matter. Seeds of Heteranthera limosa (ducksalad; HETLI), Cyperus difformis (smallflower umbrella sedge; CYPDI), one stand of Echinochloa crus-galli (barnyardgrass; ECHCG), and one stand of four rice seedlings (Oryza sativa cv. ‘M202’; ORYSA) were planted into a single 11-cm diameter pot for each rate and mixture of rates. To obtain this planting, C. difformis and H. limosa seeds were planted separately on the surface soil layer at particular locations within each pot. Water levels were brought to a puddled condition above the soil surface directly after planting. E. crus-galli and rice seeds were planted in cavity trays in the silt loam soil and transplanted at the 1.5 and 2.0 leaf stage, respectively. E. crus-galli and rice plants were transplanted to about 2-cm depth by transferring plugs from the cavity trays. Plantings were sequential so that these plant species all reached the 2.0- to 2.5-leaf stage in the 11-cm diameter pot at time of treatment. Plantings were established and maintained in a greenhouse with day and night temperatures of about 29.5 and 26.7° C. respectively; supplemental balanced lighting was provided to maintain a 16-hour photoperiod. Pots were fertilized periodically with a 200 ppm solution of commercial Scotts Peters® Professional® General Purpose 20-20-20 Water Soluble Fertilizer, amended to 10 ppm with a commercial iron-chelate micronutrient fertilizer. The solution was supplied at time of watering via a liquid fertilizer injector.
(§2) At treatment time, test pots were flooded to 3 cm above the soil surface and maintained at that water depth for the duration of the test. Chemical treatments were formulated in acetone and applied directly to the paddy water (i.e., postemergence to flood). Make-up volumes of acetone were added to ensure that all pots were treated with a consistent volume. Test pots were maintained in the greenhouse. A randomized complete block design was employed. Five replicates of each treatment, alone and in mixture, were used. Each species was visually evaluated for treatment effects by comparing those treated to untreated controls and rated for plant response after 21 days.

ducksalad (HETLI) = assay: Test 32 greenhouse, simulated flooded rice culture; format: in vivo, Heteranthera limosa; parameters: scale not given here; settings: postemergence to flood, 21 DAA
Description: as §1, §2

flint corn (ZEAMI) = assay: Test 11 field trial, preemergence; format: in vivo, Zea mays L. ssp. indurata; parameters: scale not given here; settings: atrazine 1500 or metolachlor 2500 g a.i./ha alone
Description: Corn seeds (hybrid ‘Pioneer 3041’) were planted in mid spring season, 5 cm deep in a clay soil having 2.6% organic matter and a pH of 5.6. Plots were 8 m long by 1.5 m wide with rows spaced 80 cm apart. Seeds were spaced 15 cm apart within the rows. The field was managed using conventional tillage practices. […] Treatments consisted of Compound 2 or
Goosegrass was not evaluated 16 or 91 days after application.

common chickweed (STEME) = assay: Test 24 growth chamber, postemergence; format: in vivo, Stellaria media; settings: 17 DAA
Description: (§3) Plants were treated postemergence at the 2-4 leaf growth stage, and each treatment was replicated three times. […] Plants were watered as needed. […] Results for barley and wheat are the means across varieties of the three replicates, and results for the weeds are the means of the three replicates.

sorghum (SORVU) = assay: Test 28 greenhouse, postemergence; format: in vivo, Sorghum vulgare; settings: 26 DAA
Description: (§4) A greenhouse test was conducted to evaluate the effects on the plant species corn (ZEAMD, Zea mays ssp. indentata), sorghum (SORVU, Sorghum vulgare L.), dry-seeded rice (ORYSA, Oryza sativa L.), wheat (TRZAW, Triticum aestivum L.), ivyleaf morningglory (IPOHE, Ipomoea hederacea (L.) JACQ.), and barnyardgrass (ECHCG, Echinochloa crus-galli (L.) P. BEAUV.), of mixtures of Compound 2 with isoxadifen-ethyl. Corn, sorghum, rice, wheat, ivyleaf morningglory and barnyardgrass seeds were planted in RediEarth, a commercial potting medium. […] Corn plants were treated postemergence at the V2 growth stage, and sorghum, rice, wheat, ivyleaf morningglory, and barnyardgrass plants were treated postemergence at the 3-leaf stage. […] Each treatment was replicated three times. […] Plants were watered as needed.

dry-seeded rice (ORYSA) = assay: Test 28 greenhouse, postemergence; format: in vivo, Oryza sativa; settings: 26 DAA
Description: as §4

wild chamomile (MATCH) = assay: Test 24 growth chamber, postemergence; format: in vivo, Matricaria chamomilla; settings: 17 DAA
Description: as §3

Russian thistle (SASKR) = assay: Test 24 growth chamber, postemergence; format: in vivo, Salsola kali; settings: 17 DAA
Description: as §3

[2] = system: ivyleaf morningglory (IPOHE); assay: Test 26 field trial, postemergence; format: in vivo, Ipomoea hederacea; parameters: scale not given here
Description: Corn seeds (hybrid ‘Pioneer 31G96’) were planted in mid spring season, 3.8 cm deep in a silt loam soil having 2% organic matter and a pH of 6.6. Plots were 6.1 m long by 3.0 m wide with rows spaced 76 cm apart. Seeds were spaced 15 cm apart within the rows. The field was managed using conventional tillage practices. […] All treatments also included a surfactant. […] Some of the weed species could not be evaluated at every timing. […] Results are the means of the three replicates.

oak species (QUESS) = assay: Test 13 field trial, postemergence, brush weeds; format: in vivo, Quercus L. spp.; settings: 56 DAA; g a.i./ha: Cpd 2 250; Fosamine-ammonium 6700
Description: Plots were established in non-crop land and were 6.1 m long by 3.0 m wide. […] Treatments were applied postemergence to the brush weeds using a backpack sprayer delivering a spray volume of 468 L/ha using a pressure of 241 kPa. […] All treatments also included a surfactant. […] Results are the means of the three replicates.

Nc1nc(C2CC2)nc(C(=O)O)c1Cl [Compound 1, 6-amino-5-chloro-2-cyclopropyl-4-pyrimidinecarboxylic acid]
CYPDI Obs ([1]; Cpd 1 31.25 g a.i./ha): 80
CYPDI Obs ([1]; Cpd 1 62.5 g a.i./ha): 74
CYPDI Obs ([1]; Cpd 1 125 g a.i./ha): 92
HETLI Obs (ducksalad (HETLI); Cpd 1 31.25 g a.i./ha): 38
HETLI Obs (ducksalad (HETLI); Cpd 1 62.5 g a.i./ha): 76
HETLI Obs (ducksalad (HETLI); Cpd 1 125 g a.i./ha): 95

CCNc1nc(Cl)nc(NC(C)C)n1 [Atrazine, atrazine, reference compound]
ZEAMI Obs (flint corn (ZEAMI); 16 DAA): 0
ZEAMI Obs (flint corn (ZEAMI); 30 DAA): 0
ZEAMI Obs (flint corn (ZEAMI); 44 DAA): 0
ZEAMI Obs (flint corn (ZEAMI); 62 DAA): 0
ZEAMI Obs (flint corn (ZEAMI); 91 DAA): 0

COC(=O)c1nc(C2CC2)nc(N)c1Cl [Compound 2, methyl 6-amino-5-chloro-2-cyclopropyl-4-pyrimidinecarboxylate]
STEME Obs (scale 0 to 100) (common chickweed (STEME); Cpd 2 4 g a.i./ha): 47
STEME Obs (scale 0 to 100) (common chickweed (STEME); Cpd 2 8 g a.i./ha): 63
STEME Obs (scale 0 to 100) (common chickweed (STEME); Cpd 2 16 g a.i./ha): 67
SORVU Obs (sorghum (SORVU); Cpd 2 32 g a.i./ha): 73%
SORVU Obs (sorghum (SORVU); Cpd 2 64 g a.i./ha): 96%
ORYSA Obs (dry-seeded rice (ORYSA); Cpd 2 32 g a.i./ha): 60
ORYSA Obs (dry-seeded rice (ORYSA); Cpd 2 64 g a.i./ha): 83
MATCH Obs (scale 0 to 100) (wild chamomile (MATCH); Cpd 2 4 g a.i./ha): 55
MATCH Obs (scale 0 to 100) (wild chamomile (MATCH); Cpd 2 8 g a.i./ha): 65
MATCH Obs (scale 0 to 100) (wild chamomile (MATCH); Cpd 2 16 g a.i./ha): 72
SASKR Obs (scale 0 to 100) (Russian thistle (SASKR); Cpd 2 4 g a.i./ha): 63
SASKR Obs (scale 0 to 100) (Russian thistle (SASKR); Cpd 2 8 g a.i./ha): 75
SASKR Obs (scale 0 to 100) (Russian thistle (SASKR); Cpd 2 16 g a.i./ha): 75
IPOHE Obs ([2]; 14 DAA, 30 g a.i./ha): 90
IPOHE Obs ([2]; 14 DAA, 45 g a.i./ha): 67
IPOHE Obs ([2]; 14 DAA, 60 g a.i./ha): 98
IPOHE Obs ([2]; 28 DAA, 30 g a.i./ha): 95
IPOHE Obs ([2]; 28 DAA, 45 g a.i./ha): 99
IPOHE Obs ([2]; 28 DAA, 60 g a.i./ha): 98
IPOHE Obs ([2]; 56 DAA, 30 g a.i./ha): 88
IPOHE Obs ([2]; 56 DAA, 45 g a.i./ha): 96
IPOHE Obs ([2]; 56 DAA, 60 g a.i./ha): 98
QUESS Obs (oak species (QUESS)): 33
